Measured values published in US20050112573A1, “Method of detecting toxic substance” (priority 2001, published 2005).

System: yeast genes (level of expressed mRNA)
Experiment: DNA chip analysis of expressed mRNA of yeast genes after 2 h culture with a toxic chemical substance
Type: cell-based, Saccharomyces cerevisiae S288C
Description: Yeast (Saccharomyces cerevtisiae S288C (α SUC2mal mel gap2 CUP1)) were cultured at 25° C. on YPD medium (yeast extract 1%, polypepton 2%, glucose 2%). One of toxic chemical substances was added to the cell at logarithmic growth phase, and the cell was further cultured for two hours. Cell was cultured without any chemical substance in the same condition, and was used as control. Concentrations of the chemical substances were defined to inhibit the growth of the yeast but not lead to death.
After the completion of cultivation, the culture was centrifuged to collect the cells. To the cells, sodium acetate buffer (50 mM sodium acetate, 10 mM EDTA, 1% SDS) was added, and the mixture was shaken at 65° C. for five minutes, followed by returning to room temperature, and obtaining the supernatant, which procedure was repeated two times. To the supernatant, ½ amount of a solution of phenol/chloroform was added, and the mixture was centrifuged to give a supernatant, which was added with an equal amount of chloroform, and the mixture was centrifuged to give a supernatant. To the supernatant, an equal amount of isopropanol containing 0.3 M sodium acetate was added, and the mixture was allowed to stand at room temperature for 30 minutes, after which the mixture was centrifuged to give a sediment of the whole RNAs. Seventy % ethanol was added to the sediment, and the mixture was again centrifuged to give a sediment, which was then dried and dissolved in water. mRNA was isolated from the whole RNAs as followings. In view of the fact that a poly A chain is attached to the 3′ terminus of mRNA, a polynucleotide having a poly T structure which was immobilized on the surface of latex beads was used to trap the mRNA, and then the mRNA was washed and eluted with spine column (Oligotex-dT30<Super>mRNA Purification Kit, Takara). Reverse transcription of the mRNA was conducted with a reverse transcriptase (Super Script II Reverse Transcriptase; catalogue No. 18064-014, GibcoBRL) using fluorescence-labeled nucleotides to give cDNAs that were introduced with Cy3-dUTP or Cy5-dUTP during the reverse transcription.
The labeled cDNAs were dissolved in TE buffer (10 mM Tris-HCl/1 mM EDTA, pH8.0), and the solution was dropped on the DNA chip containing the whole genes of yeast (DNA Chip Research Inc. Japan) so that the cDNAs were hybridized on the DNA chip at 65° C. for over 12 hours. The fluoresces intensity of the DNA chip was read with a scanner, and the ratio relative to the fluorescence intensity resulting from the absence of chemical substance was estimated as the following, which is shown in Tables 1 to 9: [formula]
In the Tables, “Intensity” indicated in the rightmost column is a value of the level of expressed mRNA of each gene in control cells as divided by the average level of the expressions of the whole genes.

CCCCCCCCCCCCOS(=O)(=O)[O-].[Na+] [(18), sodium lauryl sulfate]
0.5: The level of expressed mRNA in the presence of chemical substance/absence: YKL097C (gene YKL097C) | level of expressed mRNA in the presence of chemical substance/in its absence (gene YLR300W)
2.2: level of expressed mRNA in the presence of chemical substance/in its absence (gene YMR271C) | level of expressed mRNA in the presence of chemical substance/in its absence (gene YNR059W)
0.8: level of expressed mRNA in the presence of chemical substance/in its absence (gene YIL167W) | The level of expressed mRNA in the presence of chemical substance/absence: YKR040C (gene YKR040C) | The level of expressed mRNA in the presence of chemical substance/absence: YML013W (gene YML013W) | level of expressed mRNA in the presence of chemical substance/in its absence (gene YMR189W) | The level of expressed mRNA in the presence of chemical substance/absence: YNL176C (gene YNL176C) | The level of expressed mRNA in the presence of chemical substance/absence: YNL276C (gene YNL276C) | The level of expressed mRNA in the presence of chemical substance/absence: YNR051C (gene YNR051C) | level of expressed mRNA in the presence of chemical substance/in its absence (gene YOL058W)
2.4: The level of expressed mRNA in the presence of chemical substance/absence: YNL194C (gene YNL194C) | level of expressed mRNA in the presence of chemical substance/in its absence (gene YOL126C)
4.0: level of expressed mRNA in the presence of chemical substance/in its absence (gene YNL231C)
2.6: level of expressed mRNA in the presence of chemical substance/in its absence (gene YMR105C)
2.1: level of expressed mRNA in the presence of chemical substance/in its absence (gene YNR002C)
0.9: The level of expressed mRNA in the presence of chemical substance/absence: YGR293C (gene YGR293C) | The level of expressed mRNA in the presence of chemical substance/absence: YHL037C (gene YHL037C) | The level of expressed mRNA in the presence of chemical substance/absence: YHR105W (gene YHR105W) | The level of expressed mRNA in the presence of chemical substance/absence: YHR181W (gene YHR181W) | level of expressed mRNA in the presence of chemical substance/in its absence (gene YIR035C) | The level of expressed mRNA in the presence of chemical substance/absence: YJL037W (gene YJL037W) | level of expressed mRNA in the presence of chemical substance/in its absence (gene YJL088W) | The level of expressed mRNA in the presence of chemical substance/absence: YJR030C (gene YJR030C) | The level of expressed mRNA in the presence of chemical substance/absence: YKL059C (gene YKL059C) | level of expressed mRNA in the presence of chemical substance/in its absence (gene YNL104C) | level of expressed mRNA in the presence of chemical substance/in its absence (gene YNL106C) | The level of expressed mRNA in the presence of chemical substance/absence: YNL200C (gene YNL200C) | The level of expressed mRNA in the presence of chemical substance/absence: YOR155C (gene YOR155C) | The level of expressed mRNA in the presence of chemical substance/absence: YOR253W (gene YOR253W)
2.0: level of expressed mRNA in the presence of chemical substance/in its absence (gene YNR019W)
0.6: The level of expressed mRNA in the presence of chemical substance/absence: YIL127C (gene YIL127C) | The level of expressed mRNA in the presence of chemical substance/absence: YLR338W (gene YLR338W) | The level of expressed mRNA in the presence of chemical substance/absence: YLR339C (gene YLR339C) | The level of expressed mRNA in the presence of chemical substance/absence: YNL191W (gene YNL191W)
1.6: The level of expressed mRNA in the presence of chemical substance/absence: YJR044C (gene YJR044C) | The level of expressed mRNA in the presence of chemical substance/absence: YLR392C (gene YLR392C) | level of expressed mRNA in the presence of chemical substance/in its absence (gene YML110C)
1.9: level of expressed mRNA in the presence of chemical substance/in its absence (gene YJL196C) | The level of expressed mRNA in the presence of chemical substance/absence: YKL094W (gene YKL094W) | The level of expressed mRNA in the presence of chemical substance/absence: YMR071C (gene YMR071C)
1.8: level of expressed mRNA in the presence of chemical substance/in its absence (gene YHR190W) | The level of expressed mRNA in the presence of chemical substance/absence: YNL265C (gene YNL265C)
1.5: level of expressed mRNA in the presence of chemical substance/in its absence (gene YJL132W) | The level of expressed mRNA in the presence of chemical substance/absence: YKL100C (gene YKL100C) | The level of expressed mRNA in the presence of chemical substance/absence: YML118W (gene YML118W) | level of expressed mRNA in the presence of chemical substance/in its absence (gene YNL012W)
0.7: The level of expressed mRNA in the presence of chemical substance/absence: YHR095W (gene YHR095W) | The level of expressed mRNA in the presence of chemical substance/absence: YIL108W (gene YIL108W) | level of expressed mRNA in the presence of chemical substance/in its absence (gene YLR180W) | level of expressed mRNA in the presence of chemical substance/in its absence (gene YMR296C) | The level of expressed mRNA in the presence of chemical substance/absence: YOR088W (gene YOR088W)
1.1: The level of expressed mRNA in the presence of chemical substance/absence: YJL032W (gene YJL032W) | The level of expressed mRNA in the presence of chemical substance/absence: YJL049W (gene YJL049W) | The level of expressed mRNA in the presence of chemical substance/absence: YJL097W (gene YJL097W) | level of expressed mRNA in the presence of chemical substance/in its absence (gene YKR039W) | The level of expressed mRNA in the presence of chemical substance/absence: YMR068W (gene YMR068W) | level of expressed mRNA in the presence of chemical substance/in its absence (gene YNL045W) | level of expressed mRNA in the presence of chemical substance/in its absence (gene YNR033W) | The level of expressed mRNA in the presence of chemical substance/absence: YOR022C (gene YOR022C) | The level of expressed mRNA in the presence of chemical substance/absence: YOR087W (gene YOR087W) | level of expressed mRNA in the presence of chemical substance/in its absence (gene YOR130C) | The level of expressed mRNA in the presence of chemical substance/absence: YOR138C (gene YOR138C)
3.6: The level of expressed mRNA in the presence of chemical substance/absence: YHL021C (gene YHL021C)
1.2: level of expressed mRNA in the presence of chemical substance/in its absence (gene YIL033C) | The level of expressed mRNA in the presence of chemical substance/absence: YMR115W (gene YMR115W) | level of expressed mRNA in the presence of chemical substance/in its absence (gene YNL130C) | The level of expressed mRNA in the presence of chemical substance/absence: YNL212W (gene YNL212W) | The level of expressed mRNA in the presence of chemical substance/absence: YNL253W (gene YNL253W)
1.4: level of expressed mRNA in the presence of chemical substance/in its absence (gene YHR037W) | level of expressed mRNA in the presence of chemical substance/in its absence (gene YJR142W) | The level of expressed mRNA in the presence of chemical substance/absence: YKL051W (gene YKL051W) | The level of expressed mRNA in the presence of chemical substance/absence: YML079W (gene YML079W) | level of expressed mRNA in the presence of chemical substance/in its absence (gene YMR272C) | The level of expressed mRNA in the presence of chemical substance/absence: YNL026W (gene YNL026W) | The level of expressed mRNA in the presence of chemical substance/absence: YOL026C (gene YOL026C) | level of expressed mRNA in the presence of chemical substance/in its absence (gene YOL143C)
1.3: level of expressed mRNA in the presence of chemical substance/in its absence (gene YHR092C) | The level of expressed mRNA in the presence of chemical substance/absence: YHR134W (gene YHR134W) | level of expressed mRNA in the presence of chemical substance/in its absence (gene YHR137W) | The level of expressed mRNA in the presence of chemical substance/absence: YIL165C (gene YIL165C) | The level of expressed mRNA in the presence of chemical substance/absence: YML041C (gene YML041C) | The level of expressed mRNA in the presence of chemical substance/absence: YMR114C (gene YMR114C) | The level of expressed mRNA in the presence of chemical substance/absence: YMR160W (gene YMR160W) | The level of expressed mRNA in the presence of chemical substance/absence: YMR258C (gene YMR258C) | level of expressed mRNA in the presence of chemical substance/in its absence (gene YNL037C) | level of expressed mRNA in the presence of chemical substance/in its absence (gene YNL169C) | The level of expressed mRNA in the presence of chemical substance/absence: YNL181W (gene YNL181W) | level of expressed mRNA in the presence of chemical substance/in its absence (gene YOL157C) | level of expressed mRNA in the presence of chemical substance/in its absence (gene YOR136W)
1.7: level of expressed mRNA in the presence of chemical substance/in its absence (gene YJR148W) | The level of expressed mRNA in the presence of chemical substance/absence: YLR097C (gene YLR097C) | level of expressed mRNA in the presence of chemical substance/in its absence (gene YOL153C)
3.2: level of expressed mRNA in the presence of chemical substance/in its absence (gene YKL067W) | level of expressed mRNA in the presence of chemical substance/in its absence (gene YLR142W)
2.3: level of expressed mRNA in the presence of chemical substance/in its absence (gene YJR159W) | level of expressed mRNA in the presence of chemical substance/in its absence (gene YOR099W)
1.0: The level of expressed mRNA in the presence of chemical substance/absence: YHL006C (gene YHL006C) | The level of expressed mRNA in the presence of chemical substance/absence: YHR083W (gene YHR083W) | The level of expressed mRNA in the presence of chemical substance/absence: YHR180W (gene YHR180W) | level of expressed mRNA in the presence of chemical substance/in its absence (gene YIL154C) | The level of expressed mRNA in the presence of chemical substance/absence: YJL017W (gene YJL017W) | The level of expressed mRNA in the presence of chemical substance/absence: YKL090W (gene YKL090W) | The level of expressed mRNA in the presence of chemical substance/absence: YLR226W (gene YLR226W) | level of expressed mRNA in the presence of chemical substance/in its absence (gene YLR273C) | level of expressed mRNA in the presence of chemical substance/in its absence (gene YLR307W) | The level of expressed mRNA in the presence of chemical substance/absence: YLR415C (gene YLR415C) | The level of expressed mRNA in the presence of chemical substance/absence: YLR427W (gene YLR427W) | The level of expressed mRNA in the presence of chemical substance/absence: YML029W (gene YML029W) | The level of expressed mRNA in the presence of chemical substance/absence: YNL058C (gene YNL058C) | The level of expressed mRNA in the presence of chemical substance/absence: YNL063W (gene YNL063W) | level of expressed mRNA in the presence of chemical substance/in its absence (gene YNL322C) | The level of expressed mRNA in the presence of chemical substance/absence: YOL030W (gene YOL030W)
